Reference: patent publication EP4813463A2, “TYK2 INHIBITORS AND COMPOSITIONS AND METHODS THEREOF” (Lynk Pharmaceuticals Co. Ltd., priority 2023, dated 2024)
Values after ≈ are worked out from the molar mass of the structure shown. Where two headings read alike, the source gives them in different places.

Experiments:
[1] = test system: Ba/F3-FL-TYK2-P760L cells; experiment: Anti-proliferative assay in engineered Ba/F3 cells (Cell-Titer Glo, 72 h); assay type: cell-based; settings: 72 h compound treatment, concentration that causes 50% growth inhibition, read-out: Baf3-FL-T2P760L
In short: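 IC50 from luminescent ATP viability after 72 h compound exposure (37 °C, 5% CO2), % inhibition normalised to DMSO-treated cells minus medium blank. IL-3-free Ba/F3-FL-TYK2-P760L (Tel-JAK fusion) cells in 10% FBS RPMI-1640 received 9 three-fold doses, top 20 µM, 0.1% DMSO.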

[2] = target: T1, TYK2-JH2 domain (Homo sapiens, UniProt P29597); experiment: Binding activity test for JH2 domain of TYK2 (Tb-antibody/tracer FRET); settings: for IC50: JH2 domain enzyme, 60 min at 25°C, then 4°C overnight, read-out: TYK2 JH2 Binding IC50; for JAK1/TYK2 selectivity: ratio of JAK1 JH2 to TYK2 JH2 binding IC50
T1 construct: JAK1-JH2 domain or TYK2-JH2 domain enzyme in assay buffer
In short: (§1)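 IC50 values (nM) come from TR-FRET readings taken after a 25°C incubation followed by overnight at 4°C. Each well held JH2 domain protein, Tb-antibody, tracer and test compound titrated in 11 threefold steps, with DMSO high and low controls.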

[3] = Kinetic solubility; assay type: physicochemical; settings: phosphate buffer, pH 7.4, aqueous buffer, kinetic from dmso stock, 100 mM pH 7.4 phosphate buffer, 1% DMSO, room temperature, read-out: Kinetics Solubility_PBS7.4
Protocol: Aliquots of 8 µL of reference and test compound stock solutions (10 mM/5 mM) are added into 792 µL of 100 mM pH 7.4 phosphate buffer. The final DMSO concentration is 1%. Sample tubes are shaken for 2 hours at 1000 rpm at room temperature. Samples are centrifuged at 12000 rpm for 10 min to precipitate un-dissolved particles. And transfer the supernatants to a new tube or plate. Add 5 µL of samples (no diluted, 10 times diluted, and 100 times diluted) and standard curve samples to 95 µL of ACN containing IS for LC-MS/MS analysis. Kinetic Solubilities Values of Exemplary Compounds

[4] = test system: pSTAT1; experiment: Phosphorylation inhibition of STAT in human whole blood (IFN-alpha stimulated, flow cytometry); assay type: cell-based; settings: T-cell, 20 min, IFN-alpha stimulation 20 mins, CD3 T cells, read-out: pSTAT1 inhibition in hWB (IC50)
Protocol: The inhibitory potential of test articles in human whole blood assay was evaluated by the method of flow cytometry.
IFN-alpha will activate JAK1 and TYK2 kinase in T cells by binding to IFN receptors, and then lead to phosphorylation of STAT1 and STAT2. The phosphorylated STAT1 enter nuclear and promote transcription and expression of IFN-gamma. To evaluate the efficacy of TYK2i in T cells, freshly collected human whole blood will be stimulated with certain unit of human IFN-alpha (Universal Type I IFN(1MU), R&D, 11200-2) for 20 mins in incubator. After stimulation, fix cells with Phosflow™ Fix Buffer I (BD, 557870), and then collect fixed cells by centrifugation (500 g, 8min). Wash cells once with pre-cooled PBS, and then permeabilize cells with cold Perm Buffer III buffer (BD, 558050) for 45 mins on ice. Collect cells by centrifugation (600 g, 8min) and washed twice with cold PBS. Stain cells with anti-human CD3(FITC Mouse Anti-Human CD3, BD, 555332) and anti-pSTAT1_Y701(Alexa Fluor 647 Mouse Anti-Stat1 (pY701), BD, 612597) antibodies. Detect pSTAT1 by flow cytometry (CytoFlex S) and analyze data with FlowJo and GraphPad Prism 8 software. IC50 values of test articles were determined using 4- parameter logistic equation.

[5] = target: T2, JAK1-JH2 domain (Homo sapiens, UniProt P23458); experiment: Binding activity test for JH2 domain of JAK1 (Tb-antibody/tracer FRET); settings: JH2 domain enzyme; 60 min at 25°C, then 4°C overnight; read-out: JAK1 JH2 Binding IC50
T2 construct: JAK1-JH2 domain or TYK2-JH2 domain enzyme in assay buffer
In short: as §1

[6] = Microsomal metabolic stability assay; assay type: in vitro ADME; settings: human, liver microsomes, pH 7.4, 0.5 mg/mL microsomal protein, 1 µM test article, 2 mM NADPH; for microsomal CLint at 1 µM: read-out: Human LM Clint; for half-life at 1 µM: read-out: Human LM T1/2
Protocol: Microsomes were pre-incubated with test compound or control compounds for 5 min at 37°C in 100 mM potassium phosphate buffer, pH 7.4, 1.0 mM EDTA. The reaction was initiated by addition of 15 µL of the NADPH regenerating system to 30 µL of each incubation mixture per time point. The final incubation condition was composed of 0.5 mg/mL microsomal protein, 1 µM test article/positive control, 2 mM NADPH. The 0-minute samples were prepared by addition of a 30 µL aliquot of each incubation mixture to 135 µL quench reagent to precipitate proteins. And then a 15 µL aliquot of the NADPH regenerating system was added. At 5, 15, 30 and 45 minutes, the reaction will be stopped by the addition of cold acetonitrile solution containing internal standard. The samples taken at all time points were centrifuged at 5000×g for 15 minutes. 50 µL of supernatant are taken into 96-well assay plates pre-added with 50 µL ultrapure water, and then analyzed by LC/MS/MS.
Concentrations of test articles, control compounds in the samples were determined by using LC/MS/MS method. Plotting of the chromatograms and peak area integrations are carried out by Analyst (AB Sciex).
In the determination of the in vitro elimination constant (ke) of the control compounds, the analyte/internal standard peak area ratios will be converted to percentage remaining (%Remaining) with the following equation: %Remaining = (Peak area ratio of analyte to IS at each time point)/(Peak area ratio of analyte to IS at t = 0) × 100% [formula]
The CLint of microsomes was calculated using the formula: CLint (mic)=0.693/T1/2 /mg microsome protein per mL. The slope was measured by the natural logarithm of the percentage of the residual compound and time, T1/2 was calculated according to the following formula. T = (0.693)/(−slope) [formula]

T2 sequence (P23458 583-855 limits assumed): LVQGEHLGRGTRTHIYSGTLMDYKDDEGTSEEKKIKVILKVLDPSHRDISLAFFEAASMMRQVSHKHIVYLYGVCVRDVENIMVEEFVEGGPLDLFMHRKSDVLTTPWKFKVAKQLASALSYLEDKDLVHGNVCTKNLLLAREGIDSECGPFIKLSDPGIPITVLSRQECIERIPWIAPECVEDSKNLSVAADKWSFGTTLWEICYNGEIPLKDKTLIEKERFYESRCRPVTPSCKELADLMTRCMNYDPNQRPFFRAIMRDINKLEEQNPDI
T1 sequence (P29597 589-875 limits assumed): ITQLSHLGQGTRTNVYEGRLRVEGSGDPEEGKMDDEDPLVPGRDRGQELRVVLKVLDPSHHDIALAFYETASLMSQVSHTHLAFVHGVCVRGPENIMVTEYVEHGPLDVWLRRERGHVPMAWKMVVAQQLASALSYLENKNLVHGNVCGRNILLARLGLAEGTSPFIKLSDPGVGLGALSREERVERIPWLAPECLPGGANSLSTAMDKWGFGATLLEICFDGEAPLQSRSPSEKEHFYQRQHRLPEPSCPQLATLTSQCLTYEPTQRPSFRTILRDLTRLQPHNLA

Row | SMILES | IC50 [1] | IC50 [2] | JAK1/TYK2 selectivity [2] | solubility kinetic at 2 h [3] | IC50 [4] | IC50 [5] | IC50 ([1]; Mus musculus, BaF3, 72 h) | microsomal CLint at 1 µM [6] | half-life at 1 µM [6]
1 | [2H]C([2H])([2H])NC(=O)c1cnc(NC(=O)C2CC2)cc1Nc1cnn2ccc(C(C)C(F)(F)F)c(OC)c12 (single isomer, unassigned) [Example 9B, (S*)-6-(cyclopropanecarboxamido)-4-((4-methoxy-5-(1,1,1-trifluoropropan-2-yl)pyrazolo[1,5-a]pyridin-3-yl)amino)-N-(methyl-d3)nicotinamide] | 54.2 nM | 0.08 nM | 63.0 | 45.4 µM (≈ 21.7 µg/mL) | 290 nM | 5.04 nM |  |  | 
2 | [2H]C([2H])([2H])NC(=O)c1cnc(NC(=O)C2CC23CC3)cc1Nc1cnn2ccc([C@H](O)C(F)(F)F)c(OC)c12 (single isomer, unassigned) [Example 32A, 4-((4-Methoxy-5-((S)-2,2,2-trifluoro-1-hydroxyethyl)pyrazolo[1,5-a]pyridin-3-yl)amino)-N-(methyl-d3)-6-((S*)-spiro[2.2]pentane-1-carboxamido)nicotinamide] | 33 nM | 0.099 nM | 187.6 | 25.5 µM (≈ 12.9 µg/mL) | 99.4 nM | 18.6 nM |  |  | 
3 | [2H]C([2H])([2H])NC(=O)c1cnc(NC(=O)C2CC2)cc1Nc1cn(C)c2ccc(CC)c(OC)c12 [Example 2, 6-(Cyclopropanecarboxamido)-4-((5-ethyl-4-methoxy-1-methyl-1H-indol-3-yl)amino)-N-(methyl-d3)nicotinamide] |  | 0.333 nM | 15.7 | 15.3 µM (≈ 6.5 µg/mL) | 141 nM | 5.24 nM | 17 nM |  | 
4 | [2H]C([2H])([2H])NC(=O)c1cnc(NC(=O)C2CC2)cc1Nc1cnn2ccc(Cl)c(OC)c12 [Example 3, 4-((5-Chloro-4-methoxypyrazolo[1,5-a]pyridin-3-yl)amino)-6-(cyclopropanecarboxamido)-N-(methyl-d3)nicotinamide] |  | 0.223 nM | 59.9 | 15.1 µM (≈ 6.31 µg/mL) | 177 nM | 13.4 nM | 43.6 nM |  | 
5 | [2H]C([2H])([2H])NC(=O)c1cnc(NC(=O)C2CC2)cc1Nc1cnn2ccc(C)c(OC)c12 [Example 5, 6-(Cyclopropanecarboxamido)-4-((4-methoxy-5-methylpyrazolo[1,5-a]pyridin-3-yl)amino)-N-(methyl-d3)nicotinamide] |  | 0.137 nM | 48.3 | 57.4 µM (≈ 22.8 µg/mL) | 139 nM | 6.62 nM | 32 nM |  | 
6 | [2H]C([2H])([2H])NC(=O)c1cnc(NC(=O)C2CC2)cc1Nc1cnn2ccc(C(O)C(F)(F)F)c(OC)c12 (stereo not drawn) [Example 7, 6-(Cyclopropanecarboxamido)-4-((4-methoxy-5-(2,2,2-trifluoro-1-hydroxyethyl)pyrazolo[1,5-a]pyridin-3-yl)amino)-N-(methyl-d3)nicotinamide] |  | 0.147 nM | 74.9 | 42.9 µM (≈ 20.7 µg/mL) | 67.4 nM | 11 nM | 9.32 nM |  | 
7 | [2H]C([2H])([2H])NC(=O)c1cnc(NC(=O)[C@@H]2C[C@@H]2F)cc1Nc1cnn2ccc(C#N)c(OC)c12 [Example 13, 4-((5-Cyano-4-methoxypyrazolo[1,5-a]pyridin-3-yl)amino)-6-((1S,2S)-2-fluorocyclopropane-1-carboxamido)-N-(methyl-d3)nicotinamide] |  | 0.172 nM | 122.0 | 11.2 µM (≈ 4.77 µg/mL) |  | 21 nM | 131 nM | 22 µL/min/mg | 1.05 h
8 | [2H]C([2H])([2H])NC(=O)c1cnc(NC(=O)C2CC2)cc1Nc1cnn2ccc(CC(C)(F)F)c(OC)c12 [Example 20, 6-(Cyclopropanecarboxamido)-4-((5-(2,2-difluoropropyl)-4-methoxypyrazolo[1,5-a]pyridin-3-yl)amino)-N-(methyl-d3)nicotinamide] |  | 0.058 nM | 235.2 | 15 µM (≈ 6.92 µg/mL) |  | 13.6 nM | 23.1 nM |  | 
9 | [2H]C([2H])([2H])NC(=O)c1cnc(NC(=O)C2CC2)cc1Nc1cnn2ccc(COC([2H])([2H])[2H])c(OC)c12 [Example 29, 6-(Cyclopropanecarboxamido)-4-((4-methoxy-5-((methoxy-d3)methyl)pyrazolo[1,5-a]pyridin-3-yl)amino)-N-(methyl-d3)nicotinamide] |  | 0.219 nM | 76.4 | 67.2 µM (≈ 28.9 µg/mL) |  | 16.7 nM | 80.9 nM | 27.9 µL/min/mg | 0.827 h
10 | [2H]C([2H])([2H])NC(=O)c1cnc(NC(=O)C2CC23CC3)cc1Nc1cnn2ccc([C@H](O)C(F)(F)F)c(OC)c12 (stereo partly drawn) [Example 32, 4-((4-Methoxy-5-((S)-2,2,2-trifluoro-1-hydroxyethyl)pyrazolo[1,5-a]pyridin-3-yl)amino)-N-(methyl-d3)-6-(spiro[2.2]pentane-1-carboxamido)nicotinamide] |  | 0.171 nM | 137.2 | 62.2 µM (≈ 31.6 µg/mL) |  | 23.5 nM | 42.3 nM |  | 
11 | [2H]C([2H])([2H])NC(=O)c1cnc(NC(=O)[C@@H]2C[C@@H]2F)cc1Nc1cnn2cnc(C(C)C(F)(F)F)c(OC)c12 (stereo partly drawn) [Example 38, 6-((1S,2S)-2-fluorocyclopropane-1-carboxamido)-4-((4-methoxy-5-(1,1,1-trifluoropropan-2-yl)pyrazolo[1,5-c]pyrimidin-3-yl)amino)-N-(methyl-d3)nicotinamide] |  | 0.761 nM | 188.7 | 37.2 µM (≈ 18.5 µg/mL) |  | 144 nM | 1340 nM | 7.34 µL/min/mg | 3.15 h
12 | [2H]C([2H])([2H])NC(=O)c1cnc(NC(=O)C2CC2)cc1Nc1nn(C)c2ccc([C@@H](O)C(F)(F)F)c(OC)c12 [Example 49B, (R)-6-(cyclopropanecarboxamido)-4-((4-methoxy-1-methyl-5-(2,2,2-trifluoro-1-hydroxyethyl)-1H-indazol-3-yl)amino)-N-(methyl-d3)nicotinamide] |  | 0.211 nM | 28.76 | 37.5 µM (≈ 18.6 µg/mL) |  | 6.07 nM | 18 nM |  | 
